Test results reported in BindingDB's records for doi:10.1016/j.chembiol.2004.11.007 (University of Sheffield, 2005).

Biological target: Calmodulin-1 (Homo sapiens, UniProt P0DP23)
Experiment: Fluorescence spectroscopy
Protocol: Experiments were conducted with HITACHI-4500 and Shimadzu RF-5301 fluorescence spectrophotometer.

Kd [µM]	Compound
0.07	O=S(=O)(Nc1ccc(NS(=O)(=O)c2cccc3ccccc23)cc1)c1cccc2ccccc12 [BN1]
0.01	O=S(=O)(Nc1cccc(NS(=O)(=O)c2cccc3ccccc23)c1)c1cccc2ccccc12 [BN2]
10	COC(=O)[C@@H](CC(=O)c1cccc(C(=O)C[C@@H](Cc2c[nH]c3ccccc23)C(=O)OC)c1)Cc1c[nH]c2ccccc12 [BT1]
9	COC(=O)[C@@H](CC(=O)Cc1ccc(/C=C/c2ccc(CC(=O)C[C@@H](Cc3c[nH]c4ccccc34)C(=O)OC)cc2)cc1)Cc1c[nH]c2ccccc12 [BT2]
